In brackets after ≈: the same amount, converted by molar mass. Like-named read-outs stand apart in the source and are kept apart here.
Key:
[1] = biological target: T1, rat liver microsomal glucose-6-phosphate translocase (Rattus norvegicus, UniProt F7EWB7); assay: inhibition of rat liver microsomal glucose-6-phosphate translocase (colorimetric assay, untreated and Triton X-100 disrupted microsomes); format: biochemical
T1 construct: rat liver microsomal glucose-6-phosphate translocase; from tissue; host or cells: rat liver microsomes (untreated and Triton X-100 disrupted)
T1 sequence (F7EWB7 1-429): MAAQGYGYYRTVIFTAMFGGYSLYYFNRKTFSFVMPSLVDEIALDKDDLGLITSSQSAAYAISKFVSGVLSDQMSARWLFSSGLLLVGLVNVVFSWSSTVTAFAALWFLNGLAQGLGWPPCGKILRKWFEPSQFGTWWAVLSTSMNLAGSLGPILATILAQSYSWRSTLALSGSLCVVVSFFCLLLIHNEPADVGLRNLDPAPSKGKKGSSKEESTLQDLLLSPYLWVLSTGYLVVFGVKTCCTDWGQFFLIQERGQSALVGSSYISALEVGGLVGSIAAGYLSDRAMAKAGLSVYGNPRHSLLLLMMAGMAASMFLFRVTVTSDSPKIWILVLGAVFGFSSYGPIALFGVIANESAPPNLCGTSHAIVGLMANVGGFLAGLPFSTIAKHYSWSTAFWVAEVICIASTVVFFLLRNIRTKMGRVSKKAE
Procedure: (§1) The fermentation is preferably carried out for 40 to 90 hours when an optimal yield of the compounds of the present invention are obtained. It is particularly preferred to carry out the fermentation for 45-70 hours under submerged conditions for example in shake flasks as well as in laboratory fermenters. If desired, antifoam agents like Desmophen® (Polypropylene oxide, Bayer A G, Leverkusen, Germany) may be used in the fermentation process. The progress of fermentation and formation of Kodaistatins A, B, C and D can be detected by measuring the […] in untreated and Triton X-100® disrupted rat liver microsomes in microliter plates at room temperature using a colorimetric assay as described in Methods in Enzymology, 174,58-67 (1989) with some modification and by HPLC In the resulting culture broth, kodaistatin B, C and D are present as minor compounds, and kodaistatins A as a major compound. Thus, the active crude material can be recovered by extraction of mycelium with water miscible solvents such as methanol, ethanol and acetone, and extraction of the culture filtrate with a water immiscible solvent such as ethyl acetate, dichioromethane, chloroform or butanol at pH 5-8 or by hydrophobic interaction chromatography using polymeric resins such as "Diaion HP-20®" (Mitsubishi Chemical Industries Limited, Japan), "Amberlite XAD®" (Rohm and Haas Industries U.S.A.) activated charcoal or ion exchange chromatography at pH 5-8. The preferred method is adsorption over "Diaion HP-20®" followed by desorption of the compound using eluants such as water, methanol, acetone or acetonitrile or combinations thereof. Concentration and lyophilization of the active eluates gives the crude compound.
Kodaistatins A, B, C and D inhibit potently the activity of rat liver microsomal glucose-6-phosphate translocase.

solubility = format: physicochemical; details: solvents in which soluble
phosphatase = biological target: T2, phosphatase (Rattus norvegicus, UniProt P43428); assay: inhibition of phosphatase activity in detergent-disrupted microsomes; format: biochemical; details: for IC50: detergent-disrupted microsomes
T2 construct: from tissue; host or cells: rat liver microsomes, detergent (Triton X-100) disrupted
T2 sequence (P43428 1-357): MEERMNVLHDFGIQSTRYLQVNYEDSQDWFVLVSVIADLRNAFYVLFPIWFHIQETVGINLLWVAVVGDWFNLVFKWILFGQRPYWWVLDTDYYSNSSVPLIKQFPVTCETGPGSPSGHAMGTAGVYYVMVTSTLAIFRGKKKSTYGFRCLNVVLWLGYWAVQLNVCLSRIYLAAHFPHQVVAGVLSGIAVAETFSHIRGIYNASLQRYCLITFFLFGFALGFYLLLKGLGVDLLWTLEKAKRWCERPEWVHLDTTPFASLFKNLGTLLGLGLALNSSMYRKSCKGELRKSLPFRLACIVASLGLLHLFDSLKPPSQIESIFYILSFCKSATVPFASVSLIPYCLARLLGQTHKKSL
Procedure: as §1

[2] = test system: phosphate/pyrophosphate translocase; assay: effect on activity of phosphate/pyrophosphate translocase; format: biochemical, rat
[3] = test system: fructose-induced gluconeogenesis; assay: glucose output of isolated rat hepatocytes, fructose-induced gluconeogenesis; format: cell-based; details: Hepatocyte, read-out: IC50, inhibition of fructose-induced gluconeogenesis
Source text: (§2) Kodaistatin A was further evaluated in isolated rat hepatocytes for its effect on glucose output.

[4] = test system: glucagon-induced glycogenolysis; assay: glucose output of isolated rat hepatocytes, glucagon-induced glycogenolysis; format: cell-based; details: Hepatocyte, read-out: IC50, inhibition of glucagon-induced glycogenolysis
Source text: as §2

[5] = rat liver microsomes, read-out: approximate IC50, glucose-6-phosphate translocase (converted)

SMILES | IC50 [1, 5] [nM] | Solubility (solubility) | mode of inhibition of glucose-6-phosphate translocase [1] | IC50 ([1]; Example V, isolation and purification, read-out: IC50, glucose-6-phosphate translocase, material at stages of purification (converted)) [nM] | IC50 ([1]; rat liver microsomes, molar value in parentheses, read-out: approximate IC50, glucose-6-phosphate translocase (converted)) [nM] | IC50 (phosphatase) [µM] | IC50 (phosphatase; molar value in parentheses) [µM] | specificity for translocase over phosphatase (phosphatase; translocase vs phosphatase) | effect on activity of phosphate/pyrophosphate translocase [2] | IC50 [3] [µg/mL] | IC50 [4] [µg/mL]
CCC(C)C=C(C)C=CC(=O)CC1=C(c2cc(O)c(O)cc2C2=C(O)C(=Cc3ccc(O)cc3)OC2=O)C(O)(C(C)=O)C(O)C1=O (single isomer, unassigned) [Kodaistatin B] | ~476 | MeOH and DMSO | – | – | – | – | – | – | – | – | –
CCC(C)/C=C(C)/C=C/C(=O)CC1=C(c2cc(O)c(O)cc2C2=C(O)/C(=C/c3ccc(O)cc3)OC2=O)C(O)(C(C)=O)C(O)C1=O (centres unmarked) [Kodaistatin A] | ~317 | MeOH, CH3 CN and DMSO | reversible and competitive inhibitor | 317 | ~300 | ~317 | ~300 | high degree of specificity for translocase | did not affect the activity | ~25 (≈ 39.6 µM) | ~50 (≈ 79.3 µM)
CCC(C)C=C(C)C=CC(=O)CC1=C(c2cc(O)c(O)cc2C2=C(O)C(=Cc3ccc(O)c(O)c3)OC2=O)C(O)(C(C)=O)C(O)C1=O (centres unmarked) [Kodaistatin C] | ~139 | MeOH and DMSO | – | – | – | – | – | – | – | – | –
CCC(C)C=C(C)C=CC(=O)CC1=C(c2cc(O)c(O)cc2C2=C(O)C(=Cc3ccc(O)c(O)c3)OC2=O)C(O)(C(C)=O)C(O)C1=O (centres unmarked) [Kodaistatin D] | ~773 | MeOH and DMSO | – | – | – | – | – | – | – | – | –
